“Also recorded” adds a separate entry of the source.
Tests used:
[1] = test system: P. aeruginosa (ATCC 27853); settings: 200 ppm gNO; cited from earlier work
S. maltophilia = settings: 200 ppm gNO; cited from earlier work
[2] = test system: infants with acute bronchiolitis; experiment: Efficacy (LOS, time to SpO2 >=92%, time to clinical score <=5) of intermittent inhalations of 160 ppm NO in infants with acute bronchiolitis; type: in vivo, human
Method: The study was a randomized, prospective, single center, double blind study of 2-11 month old hospitalized infants with acute bronchiolitis (FIG. 1).
Subjects were screened within 4 hours of admission and randomized (1:1) to receive intermittent inhalations of 160 ppm NO along with standard treatment (NO group) or intermittent inhalations of 02/air mixture and standard treatment (control group), for a maximum of 25 inhalations.
Secondary Outcome: Efficacy parameters: LOS calculated in hours, starting from first inhalation until: 1) Oxygen saturation (SpO2) ≥92% in room-air; 2) Clinical score ≤5 (15, 16) and; 3) blinded physician decision of “ready for discharge”.
The secondary outcome were efficacy measures, including LOS, time to achieve ≥92% SaO2, and time to achieve a clinical score of ≤5. LOS in hours was defined as the time between first treatment until the time the infant was “ready for discharge”, defined as 1. Room air saturation of ≥92%; 2. Clinical severity symptom score (Table E1) of ≤5; 3. A clinical decision made by a blinded pediatrician.
A severity symptom score, was used to determine the severity of each infant (Table E1). The score was comprised of four components: Respiratory rate, use of accessory muscles, wheezes and crackles on auscultation, and % room-air oxygen saturation (SpO2). Each component is given 0 to 3 points, with a total possible score of 12. Infants with a score of <6 were determined as mild and were not included in the study, while infants with a score of >10 were determined as very severe and were also excluded.
Each patient was given 5 inhalations a day of NO (treatment group) or oxygen (control group), along with the standard supportive treatment, for a maximum of 25 inhalations (based on phase I safety data). Each participant was examined and evaluated using the severity symptom score by a blinded pediatricians every […] (9 am and 3 pm). When the room-air SpO2 reached 92%, and the score was ≤5, and the patient was assessed as “ready for discharge”, the treatment was discontinued.
Post-hoc subgroup analyses of subjects with a LOS ≤24 hours and >24 hours were also conducted for the key post-hoc secondary endpoints, for the following reasons: based on preclinical studies, the anti-microbial treatment effect of NO is expected to take approximately 2.5 hours of exposure (i.e., 24 hours treatment). A third of the subjects were discharged after <24 hours in hospital. A longer LOS is expected to correlate with a higher disease severity, and therefore any treatment effect should be more evident in the subgroup LOS >24 hours.
LOS was calculated in hours from the first inhalation treatment to “ready for discharge” defined as physician decision to discharge.
Time to achieve room-air SpO2 of ≥92% (improvement in oxygenation) leading to discharge was calculated from first treatment to the first time of room-air SpO2 of ≥92% sustained until discharge. Time to clinical score of ≤5 was calculated from the first inhalation to the first time the subject reached a clinical score of ≤5.
The following statistical tests were used in the analysis of the data presented in this study: 1. The Paired T-Test was applied for testing the statistical significance of the changes from baseline for quantitative variables within each study group; 2. The two-sample T-test or Non-parametric Wilcoxon Rank Sum test or median tests were used as appropriate for analyzing differences between the study groups in quantitative parameters; 3. The Chi-square test was applied for testing the statistical significance of the differences in frequency of categorical variables between the study groups; 4. Survival analysis using a Kaplan-Meier survival function curve was applied for testing the statistical significance of the difference between the study groups in the following endpoints: LOS, from first inhalation to ready to discharge, time to achieve 92% saturation leading to discharge, and time to achieve clinical score ≤5. […]

Mycobacterium smegmatis = settings: 200 ppm gNO; cited from earlier work
Klebsiella sp.#2 = settings: 200 ppm gNO; cited from earlier work
Klebsiella sp. #1 = settings: 200 ppm gNO; cited from earlier work
[3] = previous in vitro and animal studies; cited from earlier work
S. aureus (ATCC 25923) = settings: 200 ppm gNO; cited from earlier work
[4] = test system: influenza virions or infected cell (MDCK); settings: intermittent (30 minutes every 4 hours) 160 ppm exogenous gaseous NO; MDCK cell model; cited from earlier work
MRSA = settings: 200 ppm gNO; cited from earlier work
healthy individuals = settings: 160 ppm NO for 30 minutes, 5 times daily, 5 consecutive days; cited from earlier work
Enterobacter sp. = settings: 200 ppm gNO; cited from earlier work

Structure (SMILES): [N]=O [NO, nitric oxide]
- +2.5 Log10 [1]: 2.1 hours
- LD100 [1]: 3 h
- Latent Period [1]: 1 h
- +2.5 Log10 (S. maltophilia): 2.8 hours
- LD100 (S. maltophilia): 4 h
- Latent Period (S. maltophilia): 2 h
- Time to first 92% O2 saturation sustained to discharge ([2]; ITT (N=42), NO group, P=0.517 vs control): 35.50 ± 33.73 h
- Mean time to reach clinical score of ≤5 ([2]; ITT (N=43), NO group, P=0.621 vs control): 32.83 ± 30.61 h
- Median LOS ([2]; ITT including the 16 infants discharged within <24 hours, P=0.65 vs control): 40 h
- Length of stay (LOS), mean±SD ([2]; ITT, 43 subjects, NO group, P=0.86 vs control): 43.3 ± 32.95 h
- Hazard ratio (HR), time to first sustained 92% O2 saturation ([2]; Kaplan Meier, PP, LOS >24 hours, 95% CI=0.139, 0.921, P=0.028): 0.358
- Hazard ratio (HR), time to clinical score ≤5 ([2]; Kaplan-Meier, ITT, LOS >24 hours, 95% CI: 0.161, 0.949, log rank P=0.033): 0.391
- Median LOS, post-hoc subgroup ([2]; post-hoc ITT, LOS >24 hours subgroup, P=0.014 vs control): 41.92 h
- Clinical benefit of NO versus standard treatment (LOS, time to SpO2 ≥92%, time to clinical score ≤5) ([2]; post-hoc, subgroup LOS >24 hours): statistically significant clinical benefits; also recorded: statistically significant in favor of the NO group; also recorded: statistically significant treatment benefit
- +2.5 Log10 (Mycobacterium smegmatis): 9.2 hours
- LD100 (Mycobacterium smegmatis): 10 h
- Latent Period (Mycobacterium smegmatis): 7 h
- +2.5 Log10 (Klebsiella sp.#2): 4.1 hours
- LD100 (Klebsiella sp.#2): 5 h
- Latent Period (Klebsiella sp.#2): 2 h
- +2.5 Log10 (Klebsiella sp. #1): 3.5 hours
- LD100 (Klebsiella sp. #1): 6 h
- Latent Period (Klebsiella sp. #1): 3 h
- NO exposure needed before an anti-microbial effect was seen [3]: at least 2.5 hours
- +2.5 Log10 (S. aureus (ATCC 25923)): 3.3 hours
- LD100 (S. aureus (ATCC 25923)): 4 h
- Latent Period (S. aureus (ATCC 25923)): 3 h
- Effect on influenza viral replication and infectivity [4]: reduced not just viral replication, but also its infectivity
- +2.5 Log10 (MRSA): 4.2 hours
- LD100 (MRSA): 5 h
- Latent Period (MRSA): 3 h
- Safety and tolerability in healthy individuals (healthy individuals): safe and well tolerated
- +2.5 Log10 (Enterobacter sp.): 5.3 hours
- LD100 (Enterobacter sp.): 6 h
- Latent Period (Enterobacter sp.): 4 h
